Data from US20070243221A1, “ANTI-WRINKLE COMPOSITION” (L'OREAL, priority 2006, published 2007).

Tested on: normal human fibroblasts
Test: Dermo-decontracting effect: spontaneous contraction of equivalent dermis (collagen matrix seeded with normal human fibroblasts)
Assay type: cell-based
Details: on average over the duration of the experiment (0, 4, 8 and 24 hours), equivalent dermis surface area
Source text: The principle of this test consists in studying the effect of the test product on a model of equivalent dermis consisting of a collagen matrix seeded with normal human fibroblasts.
These conditions are intended to mimic in vitro the dermal contractile phenomena that take place during facial movements. The reason for this is that, under these conditions, the cells spontaneously exert tensile forces that induce a shrinkage of the collagen gel. […] Measurement of this area makes it possible to evaluate the relaxation effects of the substances placed in contact beforehand with the equivalent dermis.
Two series of attached equivalent dermides containing normal human fibroblasts are prepared: a control series without any treatment, and a series treated with the test compound (1 μM). The experiment is repeated three times.
The dermal equivalents are prepared as described in Asselineau et al., Exp. Cell. Res., 1985, 159, 536-539; Models in dermatology, 1987, vol. 3, pp. 1-7, in the following proportions:
The treated equivalent dermis differs from the control equivalent dermis in that 1 μM of the test compound has been added thereto. […]
To do this, a digital image is acquired for each treated or untreated equivalent dermis using a camera (CCD camera—Iris Sony DXC-107P) and the surface area is then calculated on each image by means of an image analysis system (Zeiss Axiovision 3.0). […]

SMILES	reduces the contraction of fibroblasts, compared with the control (tested at 1 μM) [%]	reduces the contraction of fibroblasts, compared with the control (tested at 10 μM) [%]
c1ccc(CCCNC2CCN(CCc3ccccc3)CC2)cc1 [compound 1, 1-(2-phenylethyl)-4-[N-(3-phenylpropyl)]aminopiperidine]	21	–
CC(NC1CCN(CCc2ccccc2)CC1)c1ccccc1 (centres unmarked) [compound 5, 1-(2-phenylethyl)-4-[N-(1-phenylethyl)]aminopiperidine]	–	40
